{"source": "ChEMBL document CHEMBL1201862", "about": "“PubChem BioAssay data set” (2004)", "key": {"[1]": {"assay": "cytotoxicity in HEK-293T cells, dose response, cytotoxicity control for BCR NF-kB inhibitor project, luminescence, B-cell screen hits (AID 489021);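 further: HEK-293T cells carrying an NF-kB luciferase reporter; cells exposed to compound for about 14 hours before viability readout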", "type": "functional, cell-based"}, "[2]": {"assay": "Luminescence Cell-Based Dose Confirmation HTS to Identify Activators of 5'UTR Stem-Loop Driven Alpha-Synuclein mRNA Translation in H4 Neuroglioblastoma Cells. [Related pubchem assays: 1829 (Project Summary), 1814 (Primary HTS)]", "type": "functional"}, "[3]": {"assay": "Luminescence Cell-Based Dose Response HTS to Identify Activators of Luciferase Translation or Activity in H4 […] Cells. [Related pubchem assays: 1829 (Project Summary), 1814 (Primary HTS)]", "type": "functional"}, "[4]": {"system": "BJ", "assay": "cytotoxicity toward BJ-TERT fibroblasts, dose response, cell-based, RAS-independent, luminescence (AID 1933)", "type": "functional", "conditions": "Homo sapiens"}, "[5]": {"system": "H4", "assay": "Luminescence Cell-Based Dose Response HTS to Identify Activators of 5'UTR Stem-Loop Driven Prion Protein mRNA Translation in H4 Neuroglioblastoma Cells. [Related pubchem assays: 1829 (Project Summary), 1814 (Primary HTS)]", "type": "functional", "conditions": "Homo sapiens"}, "[6]": {"system": "BJ", "assay": "cells", "type": "functional, cell-based", "conditions": "Homo sapiens"}, "[7]": {"system": "BJ", "assay": "cytotoxicity toward BJ-TERT-LT-ST fibroblasts, dose response, cell-based, RAS-independent, luminescence (AID 1935);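 further: BJ fibroblasts immortalized with TERT plus LT and ST oncogenes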", "type": "functional", "conditions": "Homo sapiens"}, "[8]": {"assay": "cytotoxicity toward DRD oncogenic fibroblasts, dose response, cell-based, non-viral oncogenic, luminescence (AID 1934)", "type": "functional", "conditions": "Homo sapiens"}, "[9]": {"target": "Glyceraldehyde-3-phosphate dehydrogenase (Homo sapiens, UniProt P04406)", "sequence (P04406 whole entry)": "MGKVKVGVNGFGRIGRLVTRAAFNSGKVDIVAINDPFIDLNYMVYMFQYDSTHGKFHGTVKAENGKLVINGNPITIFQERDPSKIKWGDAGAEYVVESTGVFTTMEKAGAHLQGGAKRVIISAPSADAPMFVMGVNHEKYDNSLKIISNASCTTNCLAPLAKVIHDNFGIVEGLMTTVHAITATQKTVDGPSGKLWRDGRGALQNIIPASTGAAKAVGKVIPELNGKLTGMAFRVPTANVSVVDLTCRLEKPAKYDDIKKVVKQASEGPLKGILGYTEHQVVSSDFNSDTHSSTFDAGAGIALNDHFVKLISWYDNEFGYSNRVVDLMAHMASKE"}, "[10]": {"target": "T1, Bcl-2-related protein A1 (Mus musculus, UniProt Q07440)", "T1 sequence (Q07440 whole entry)": "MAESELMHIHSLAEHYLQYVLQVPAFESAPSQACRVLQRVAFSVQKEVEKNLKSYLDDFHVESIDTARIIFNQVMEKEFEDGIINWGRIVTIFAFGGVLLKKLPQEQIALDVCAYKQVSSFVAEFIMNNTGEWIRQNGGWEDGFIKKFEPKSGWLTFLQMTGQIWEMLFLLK", "type": "functional"}, "[11]": {"target": "T2, Ubiquitin-conjugating enzyme E2 N (Homo sapiens, UniProt P61088)", "T2 sequence (P61088 whole entry)": "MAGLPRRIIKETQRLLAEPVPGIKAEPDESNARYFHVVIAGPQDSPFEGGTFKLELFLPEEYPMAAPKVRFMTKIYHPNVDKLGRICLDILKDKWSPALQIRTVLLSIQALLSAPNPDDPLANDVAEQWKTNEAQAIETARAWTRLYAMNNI", "type": "functional"}, "[12]": {"target": "T2, Ubiquitin-conjugating enzyme E2 N", "type": "functional", "remark": "listed apart in the source"}, "[13]": {"target": "T3, Microphthalmia-associated transcription factor (Homo sapiens, UniProt O75030)", "T3 sequence (O75030 whole entry)": "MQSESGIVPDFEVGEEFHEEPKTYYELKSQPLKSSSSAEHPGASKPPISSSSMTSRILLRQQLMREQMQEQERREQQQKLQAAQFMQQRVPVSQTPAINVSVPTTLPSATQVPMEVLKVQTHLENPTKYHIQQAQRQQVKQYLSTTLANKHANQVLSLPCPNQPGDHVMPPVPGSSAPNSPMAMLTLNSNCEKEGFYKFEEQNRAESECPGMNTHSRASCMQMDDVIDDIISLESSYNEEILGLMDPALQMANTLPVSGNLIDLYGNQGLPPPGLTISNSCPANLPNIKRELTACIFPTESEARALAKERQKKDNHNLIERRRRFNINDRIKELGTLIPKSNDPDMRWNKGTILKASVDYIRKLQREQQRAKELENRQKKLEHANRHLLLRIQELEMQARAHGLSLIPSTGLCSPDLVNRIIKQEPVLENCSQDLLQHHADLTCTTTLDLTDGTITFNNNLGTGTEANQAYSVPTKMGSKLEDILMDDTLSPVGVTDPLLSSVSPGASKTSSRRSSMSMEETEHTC", "assay": "TRPM1 promoter luciferase signal decrease, dose response, MITF inhibitor project, cell-based, SK-MEL-5, cherry-picked, set 3 (AID 493073)", "type": "functional"}, "[14]": {"target": "T4, Aminopeptidase N (Plasmodium falciparum FcB1/Columbia, UniProt O96935)", "T4 sequence (O96935 whole entry)": "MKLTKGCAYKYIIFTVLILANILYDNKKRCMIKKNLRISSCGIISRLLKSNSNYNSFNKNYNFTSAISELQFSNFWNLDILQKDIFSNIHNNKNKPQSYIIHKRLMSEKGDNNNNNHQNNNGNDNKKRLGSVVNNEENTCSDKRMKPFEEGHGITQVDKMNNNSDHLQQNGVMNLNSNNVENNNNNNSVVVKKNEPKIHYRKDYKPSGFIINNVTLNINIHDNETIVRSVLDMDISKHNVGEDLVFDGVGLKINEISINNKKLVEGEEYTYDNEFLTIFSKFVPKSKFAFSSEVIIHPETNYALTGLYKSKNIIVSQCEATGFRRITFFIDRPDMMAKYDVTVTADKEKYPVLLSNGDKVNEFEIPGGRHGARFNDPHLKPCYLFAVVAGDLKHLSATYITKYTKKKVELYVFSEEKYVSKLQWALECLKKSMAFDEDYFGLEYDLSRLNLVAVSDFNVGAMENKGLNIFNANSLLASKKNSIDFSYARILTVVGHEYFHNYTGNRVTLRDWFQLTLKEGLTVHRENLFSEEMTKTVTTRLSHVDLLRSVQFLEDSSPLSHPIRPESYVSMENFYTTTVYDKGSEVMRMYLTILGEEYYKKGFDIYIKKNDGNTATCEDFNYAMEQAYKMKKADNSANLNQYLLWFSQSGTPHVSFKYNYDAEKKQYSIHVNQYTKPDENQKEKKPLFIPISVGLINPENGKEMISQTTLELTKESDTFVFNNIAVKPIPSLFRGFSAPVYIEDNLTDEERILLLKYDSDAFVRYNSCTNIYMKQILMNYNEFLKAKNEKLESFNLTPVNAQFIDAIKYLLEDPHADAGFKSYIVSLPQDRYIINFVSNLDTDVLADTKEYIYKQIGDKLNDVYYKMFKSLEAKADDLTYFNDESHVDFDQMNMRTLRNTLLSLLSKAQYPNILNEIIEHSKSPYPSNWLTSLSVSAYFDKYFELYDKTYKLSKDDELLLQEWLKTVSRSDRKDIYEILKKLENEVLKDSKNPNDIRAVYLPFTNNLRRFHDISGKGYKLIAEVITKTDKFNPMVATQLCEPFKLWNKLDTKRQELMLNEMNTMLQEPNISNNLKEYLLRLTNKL", "assay": "P. falciparum M1AAP inhibitors, biochemical, fluorogenic H-Leu-NHMec substrate, 1536-well (AID 1445)", "design": "species or system Plasmodium falciparum 3D7, 3D7"}, "[15]": {"target": "T5, SUMO-activating enzyme (Homo sapiens, UniProt Q9UBT2)", "T5 sequence (Q9UBE0 whole entry)": "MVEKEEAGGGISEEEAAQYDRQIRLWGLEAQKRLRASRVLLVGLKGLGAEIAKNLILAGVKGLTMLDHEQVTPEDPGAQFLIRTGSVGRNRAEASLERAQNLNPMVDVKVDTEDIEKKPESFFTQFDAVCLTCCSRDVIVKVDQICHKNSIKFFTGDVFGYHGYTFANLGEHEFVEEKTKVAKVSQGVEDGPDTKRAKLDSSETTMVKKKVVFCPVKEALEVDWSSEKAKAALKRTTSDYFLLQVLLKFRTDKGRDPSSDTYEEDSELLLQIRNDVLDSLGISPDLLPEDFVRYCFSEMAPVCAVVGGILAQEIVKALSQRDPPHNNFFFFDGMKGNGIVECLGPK", "T5 sequence (Q9UBT2 whole entry)": "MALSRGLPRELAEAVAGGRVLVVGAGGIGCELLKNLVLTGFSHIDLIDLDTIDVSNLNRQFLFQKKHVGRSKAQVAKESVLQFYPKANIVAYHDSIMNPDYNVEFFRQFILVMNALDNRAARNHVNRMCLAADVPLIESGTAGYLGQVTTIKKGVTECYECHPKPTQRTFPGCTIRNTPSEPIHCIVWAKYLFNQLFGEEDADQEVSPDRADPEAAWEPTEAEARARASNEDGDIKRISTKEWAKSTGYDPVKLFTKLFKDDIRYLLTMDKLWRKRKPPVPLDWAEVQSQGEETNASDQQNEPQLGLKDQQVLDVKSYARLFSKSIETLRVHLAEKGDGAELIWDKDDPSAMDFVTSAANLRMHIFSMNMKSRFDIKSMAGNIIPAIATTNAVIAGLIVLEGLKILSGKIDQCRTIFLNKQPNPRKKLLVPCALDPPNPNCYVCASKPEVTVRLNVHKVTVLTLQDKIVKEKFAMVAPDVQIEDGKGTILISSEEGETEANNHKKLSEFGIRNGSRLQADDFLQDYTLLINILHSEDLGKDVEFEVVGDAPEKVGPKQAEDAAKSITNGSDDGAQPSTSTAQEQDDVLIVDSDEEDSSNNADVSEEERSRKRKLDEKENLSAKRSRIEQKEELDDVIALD", "assay": "SUMOylation inhibitor hit validation, confirmation, SUMOylation inhibitor project, biochemical, AlphaScreen (AID 2018)", "type": "functional"}, "[16]": {"target": "T5, SUMO-activating enzyme", "assay": "inhibitors of in vitro SUMOylation cascade, primary screen, biochemical, HTRF, uHTS (AID 2006)", "type": "protein-complex assay"}, "[17]": {"target": "Induced myeloid leukemia cell differentiation protein Mcl-1 (Homo sapiens, UniProt Q07820)", "sequence (Q07820 whole entry)": "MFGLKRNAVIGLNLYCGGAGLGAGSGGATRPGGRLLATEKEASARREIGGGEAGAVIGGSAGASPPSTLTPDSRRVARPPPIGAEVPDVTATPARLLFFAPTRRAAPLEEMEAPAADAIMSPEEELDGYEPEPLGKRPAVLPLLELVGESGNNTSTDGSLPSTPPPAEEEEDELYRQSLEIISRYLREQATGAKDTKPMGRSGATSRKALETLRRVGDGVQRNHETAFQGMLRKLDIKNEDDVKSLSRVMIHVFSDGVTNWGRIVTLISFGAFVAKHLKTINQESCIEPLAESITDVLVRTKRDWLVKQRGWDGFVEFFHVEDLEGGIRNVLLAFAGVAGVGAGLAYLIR", "type": "functional"}}, "note": "Activity calls are given as the source filed them."}
{"smiles": "Cc1c(CCC(=O)N2CCC(C(=O)O)CC2)c(=O)oc2cc3oc4c(c3cc12)CCCC4", "values": [{"measurement": "IC50", "setting": "[1]", "value": "> 80 µM (inactive)"}]}
{"smiles": "Cn1cc(C(=O)N/N=C/c2ccc3c(c2)OCO3)c2ccccc21", "values": [{"measurement": "EC50", "setting": "[2]", "value": "> 120 µM (not active)"}, {"measurement": "EC50", "setting": "[3]", "value": "5.78 µM (active)"}, {"measurement": "EC50", "setting": "[4]", "value": "124 µM (active)"}, {"measurement": "EC50", "setting": "[5]", "value": "5.85 µM (active)"}, {"measurement": "EC50", "setting": "[6]", "value": "44.9 µM (active)"}, {"measurement": "EC50", "setting": "[7]", "value": "> 150 µM (inconclusive)"}, {"measurement": "EC50", "setting": "[8]", "value": "19.6 µM (active)"}]}
{"smiles": "O=C1C(Cl)=C(N2CCN(CCO)CC2)C(=O)N1c1ccnc(Cl)c1", "values": [{"measurement": "IC50", "setting": "[9]", "value": "> 50 µM (inconclusive)"}]}
{"smiles": "CCOc1ccc(-c2nnc(SCC(=O)Nc3cc(C)on3)o2)cc1", "values": [{"measurement": "IC50", "setting": "[1]", "value": "> 80 µM (inactive)"}]}
{"smiles": "Cc1cccc2c1c(/N=N/C(=N)S)c(O)n2C1OC(CO)C(O)C(O)C1O", "note": "(configuration not stated)", "values": [{"measurement": "IC50", "setting": "[10]", "value": "> 20 µM (inactive)"}, {"measurement": "IC50", "setting": "[11]", "value": "10.7 µM (active)"}, {"measurement": "IC50", "setting": "[12]", "value": "4.56 µM (active)"}]}
{"smiles": "O=C(CCC1CCCCC1)Nc1nc[nH]n1", "values": [{"measurement": "IC50", "setting": "[9]", "value": "> 10 µM (inconclusive)"}]}
{"smiles": "O=C(C[n+]1cccc2ccccc21)c1ccc([N+](=O)[O-])cc1", "values": [{"measurement": "AC50", "setting": "[13]", "value": "6.21 µM (active)"}]}
{"smiles": "O=C1NC(=S)NC(=O)C1=NNc1ccc(-c2ccccc2)cc1[N+](=O)[O-]", "values": [{"measurement": "IC50", "setting": "[14]", "value": "10.5 µM (active)"}, {"measurement": "IC50", "setting": "[15]", "value": "4.11 µM (active)"}, {"measurement": "IC50", "setting": "[16]", "value": "22.4 µM (active)"}, {"measurement": "IC50", "setting": "[17]", "value": "4.83 µM (active)"}]}
{"smiles": "Cc1ccccc1CNC(=O)CCCC(=O)n1nc(C)c2ccccc21", "values": [{"measurement": "IC50", "setting": "[10]", "value": "> 20 µM (inactive)"}, {"measurement": "IC50", "setting": "[11]", "value": "13.5 µM (active)"}, {"measurement": "IC50", "setting": "[12]", "value": "20 µM (active)"}]}
